The results in this text go back to ChEMBL document CHEMBL1201862, “PubChem BioAssay data set” (2004).

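Protocol summary: plate cells (96-well), add compound at 5 concentrations, incubate 48 h, interpolate endpoints linearly. GI50: concentration for 50% inhibition of growth.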 Active and inactive are the calls of the source. Rule as the data show it: active = GI50 up to about 1.1 µM and inactive = higher. Bounds are passed on as bounds.

What all share (test): NCI tumour cell line growth inhibition, 48 h
Test [1] relates to SK-MEL-28.
Test [2] concerns CCRF-CEM.
The test system of test [3] is PC-3.
Test [4] has as its system CAKI-1.
Test [5] relates to SK-OV-3.
Test [6] concerns MDA-MB-435.
Test [7] deals with IGROV-1.
The test system of test [8] is SR.
Test [9] deals with RPMI-8226.
In test [10] the test system is SN12C.
Test [11] concerns COLO 205.
Test [12] concerns HOP-92.
Test [13] relates to ACHN.
In test [14] the test system is NCI-H226.
Test [15] deals with MOLT-4.
The subject of test [16] is TK-10.
Test [17] concerns Hs-578T.
Test [18] concerns 786-0.
For test [19], the system named is U-251.
Test [20] has as its system SK-MEL-2.

Consider `Nc1cccc2nsnc12`, for which the GI50 was > 100 µM (inactive) in test [1]; 11.9 µM (inactive) in test [2]; > 100 µM (inactive) in [3]; 74.3 µM (inactive) in test [4]; > 100 µM (inactive) in test [5]; 31.6 µM (inactive) in test [6]. Moreover, the GI50 in [7] was > 100 µM (inactive); in [8] it was 4.2 µM (inactive); in [9], 17.8 µM (inactive); in test [10], > 100 µM (inactive); in [11] it was 29.3 µM (inactive); in test [12], > 100 µM (inactive). Moreover, the GI50 in test [13] is > 95.7 µM (inactive); in [14] it was > 100 µM (inactive); in test [15], 12.9 µM (inactive); in test [16], > 100 µM (inactive); in test [17] it was > 100 µM (inactive); in test [18] it was > 100 µM (inactive). For the same molecule, the GI50 in [19] and in [20] was > 100 µM (inactive) throughout.

Take `CCOC(=O)c1cccc(/N=N/c2nc[nH]c2/C=C/C(=O)OC)c1`: the GI50 in test [1] was 18.1 µM (inactive); in [2], 3.95 µM (inactive); in [3], 17.8 µM (inactive); in test [4] it was 4.97 µM (inactive); in [5], 44.8 µM (inactive); in test [6], 37 µM (inactive). Further, the GI50 was 7.53 µM (inactive) in [7]; 2.11 µM (inactive) in [8]; 9.02 µM (inactive) in [9]; 5.97 µM (inactive) in test [10]; 4.39 µM (inactive) in test [11]; 45.1 µM (inactive) in test [12]. Moreover, the GI50 in [13] is 16.5 µM (inactive); in test [14], 64.4 µM (inactive); in [15] it was 3.01 µM (inactive); in test [16], 28.4 µM (inactive); in [17], 53.5 µM (inactive); in [18], 7.36 µM (inactive). Besides, the GI50 was 6.73 µM (inactive) in test [19] and 23.7 µM (inactive) in test [20].

Turning to `C=C(Cl)C(C)(Cl)CCC(Cl)C(C)(C)Cl` (stereo not given), the GI50 in [1] was > 100 µM (inactive); in [2] it was 30.3 µM (inactive); in [3], 54.7 µM (inactive); in test [4], > 100 µM (inactive); in test [5], > 100 µM (inactive); in [6], 62.2 µM (inactive). The GI50 is 47.5 µM (inactive) in test [7]; 23.8 µM (inactive) in [8]; 20.5 µM (inactive) in test [9]; 51.6 µM (inactive) in test [10]; 44.8 µM (inactive) in [11]; 25.9 µM (inactive) in [12]. Also, the GI50 in test [13] is > 100 µM (inactive); in [14], 42.3 µM (inactive); in test [15], 23.9 µM (inactive); in [16], > 100 µM (inactive); in test [17], 27 µM (inactive); in [18], > 100 µM (inactive). For the same molecule, the GI50 in test [19] is 46.9 µM (inactive); in test [20], 27.2 µM (inactive).

On to `Cc1ccc2cccc(OC(=O)c3cc4c(cc3Cl)Sc3nccn3S4(=O)=O)c2n1`, for which the GI50 is 10.2 µM (inactive) in [1]; 2.5 µM (inactive) in test [2]; 4.39 µM (inactive) in test [3]; 26.6 µM (inactive) in [4]; 22.8 µM (inactive) in [5]; 9.59 µM (inactive) in test [6]. In addition, the GI50 was 6.37 µM (inactive) in [7]; 3.75 µM (inactive) in test [8]; 2.33 µM (inactive) in test [9]; 12.8 µM (inactive) in [10]; 15.8 µM (inactive) in [11]; 14.6 µM (inactive) in [12]. The GI50 in test [13] is 10.5 µM (inactive); in test [14], 21 µM (inactive); in test [15], 4.55 µM (inactive); in test [16], 11 µM (inactive); in [17] it was 13.4 µM (inactive); in [18], 17 µM (inactive). Moreover, the results for the GI50 in [19] and in test [20] were 4.34 µM (inactive) and 11.5 µM (inactive), respectively.

On to `C(=C(c1ccc(OC2CCCCO2)cc1)c1ccc(OC2CCCCO2)cc1)c1ccccc1` (stereo not given), for which the GI50 was 1.04 µM (active) in test [1]; 0.246 µM (active) in [2]; 0.469 µM (active) in test [3]; 0.637 µM (active) in [4]; 1.29 µM (inactive) in [5]; 0.557 µM (active) in [6]. Besides, the GI50 in [7] is 0.524 µM (active); in test [8], 0.371 µM (active); in [9] it was 0.294 µM (active); in [10], 1.02 µM (active); in test [11], 0.583 µM (active); in test [12], 0.524 µM (active). Moreover, the GI50 in test [13] is 1.06 µM (active); in test [14] it was 1.21 µM (inactive); in test [15], 0.392 µM (active); in test [16] it was 1.14 µM (inactive); in test [17], 1.13 µM (inactive); in test [18] it was 0.519 µM (active). The GI50 is 0.792 µM (active) in test [19] and 1.4 µM (inactive) in test [20].

Regarding `O=C(/C=C/c1ccc(O)c(O)c1)NC(CO)C(=O)O` (stereo not given), the GI50 in test [1], in [2], in test [3], in test [4], in test [5] and in test [6] was > 100 µM (inactive) each time. Besides, the GI50 in [7] is 0.612 µM (active); in [8], > 100 µM (inactive); in test [9], > 100 µM (inactive); in test [10], > 100 µM (inactive); in [11] it was > 100 µM (inactive); in test [12], 3.72 µM (inactive). The GI50 in test [13], in [14], in test [15], in test [16], in [17] and in test [18] was > 100 µM (inactive) throughout. The GI50 in test [19] and in test [20] was > 100 µM (inactive) in each case.

For `Cc1cn(C2CCC(CO)(CF)O2)c(=O)[nH]c1=O` (stereo not given), the GI50 in test [1], in test [2], in test [3], in [4], in [5] and in test [6] was > 100 µM (inactive) each time. Moreover, the GI50 in test [7], in test [8], in test [9], in test [10], in [11] and in test [12] was > 100 µM (inactive) throughout. The GI50 in [13], in test [14], in test [15], in test [16], in test [17] and in test [18] was > 100 µM (inactive) in each case. For the same molecule, the GI50 in test [19] and in test [20] was > 100 µM (inactive) in each case.

Regarding `CC(=O)c1cccc(NC(=O)C(=O)C(c2cnc3ccc([N+](=O)[O-])cc3n2)[N+](=O)[O-])c1` (stereo not given), the GI50 in [1] is > 100 µM (inactive); in test [2], 36.4 µM (inactive); in test [3] it was 42.9 µM (inactive); in test [4] it was > 100 µM (inactive); in test [5], > 100 µM (inactive); in test [6], > 100 µM (inactive). In addition, the GI50 in [7] is > 100 µM (inactive); in test [8], 52.1 µM (inactive); in test [9], > 100 µM (inactive); in test [10] it was > 100 µM (inactive); in test [11], 41 µM (inactive); in test [12], > 100 µM (inactive). The GI50 in test [13] was > 100 µM (inactive); in [14] it was > 100 µM (inactive); in test [15] it was 36.7 µM (inactive); in test [16], > 100 µM (inactive); in [17], > 100 µM (inactive); in test [18], > 100 µM (inactive). The GI50 in [19] and in [20] was > 100 µM (inactive) each time.

Regarding `COc1ccc2c(c1)CCN1CCc3ccccc3CC21` (stereo not given), the GI50 in [1] was 27.6 µM (inactive); in test [2], 33.3 µM (inactive); in test [3], 30 µM (inactive); in [4], 47.2 µM (inactive); in test [5], 64.6 µM (inactive); in [6], 26.8 µM (inactive). Moreover, the GI50 in [7] was 56.5 µM (inactive); in [8], 35.2 µM (inactive); in test [9], 19.1 µM (inactive); in test [10] it was 73.5 µM (inactive); in test [11], 19.4 µM (inactive); in [12], 20.5 µM (inactive). Further, the GI50 in test [13] is 45 µM (inactive); in test [14] it was 29 µM (inactive); in test [15], 35 µM (inactive); in [16], 35.7 µM (inactive); in test [17] it was 72.6 µM (inactive); in test [18] it was 31.3 µM (inactive). For the same molecule, the results for the GI50 in [19] and in test [20] were 34.7 µM (inactive) and 57.3 µM (inactive), respectively.

For `COc1c2c3c4c(c(OC)c(=O)c5c(O)cc(OC)c(c6c(OC)cc(O)c(c1=O)c63)c54)C(C(C)O)C2C(C)O` (stereo not given), the GI50 in test [1] is 0.953 µM (active); in test [2] it was 0.542 µM (active); in test [3], 0.594 µM (active); in test [4], 0.53 µM (active); in test [5] it was 1.31 µM (inactive); in [6] it was 0.67 µM (active). The GI50 in test [7] was 0.853 µM (active); in test [8], 1.31 µM (inactive); in test [9], 0.706 µM (active); in [10], 0.92 µM (active); in test [11], 0.789 µM (active); in test [12], 0.421 µM (active). Besides, the GI50 in test [13] was 0.811 µM (active); in test [14], 0.796 µM (active); in test [15], 0.505 µM (active); in test [16] it was 1.72 µM (inactive); in [17], 0.855 µM (active); in test [18], 0.789 µM (active). Moreover, the GI50 is 0.405 µM (active) in [19] and 1.23 µM (inactive) in [20].
